Measured values published in US9480655B2, “Solid pharmaceutical dosage form of dolutegravir” (ratiopharm GmbH, priority 2013, dated 2016).
Counter-ions that a name gives are not always drawn. Like-named read-outs stand apart in the source and are kept apart here.

Assay: Solubility of dolutegravir and its salts in aqueous media
Assay type: physicochemical
Method: At an increasing pH, for example to pH 6.8 in 50 mM KH2PO4 the solubility of the sodium salt of dolutegravir slightly increases but the salt still remains very slightly soluble (1-0.1 mg/ml), only. Due to this very low solubility of the active ingredient the tablets known from WO2006/116764 are of little practical use because the active ingredient will hardly dissolve in the intestine resulting in a low bioavailability.
Dolutegravir may be present in the solid pharmaceutical dosage form in its non-salt form or any pharmaceutically acceptable salt or solvate thereof. Suitable pharmaceutically acceptable salts are known to the skilled person. For example, dolutegravir may be present as alkali metal salt, such as dolutegravir sodium or dolutegravir potassium. The potassium salt being preferred.

C[C@@H]1CCO[C@H]2Cn3cc(C(=O)NCc4ccc(F)cc4F)c(=O)c(O)c3C(=O)N12 [Dolutegravir, (4R,12aS)-N-(2,4-difluorobenzyl)-7-hydroxy-4-methyl-6,8-dioxo-3,4,6,8,12,12a-hexahydro-2H-pyrido[1′,2′:4,5]pyrazino[2,1-b][1,3]oxazine-9-carboxamide]
solubility (medium not stated): practically insoluble

C[C@@H]1CCO[C@H]2Cn3cc(C(=O)NCc4ccc(F)cc4F)c(=O)c(O)c3C(=O)N12 [potassium salt]
solubility relative to the sodium salt: more soluble than the sodium salt

C[C@@H]1CCO[C@H]2Cn3cc(C(=O)NCc4ccc(F)cc4F)c(=O)c(O)c3C(=O)N12 [sodium salt of dolutegravir]
solubility (aqueous buffer, pH 6.8 in 50 mM KH2PO4, read-out: solubility): 100 to 1000 µg/mL
solubility (simulated gastric fluid, 0.1 N HCl (pH 1.2), read-out: solubility): < 100 µg/mL
